The values below come from patent publication US6878746B2, “Carbamate and thiocarbamate podophyllotoxin derivatives, preparation method and pharmaceutical compositions containing them” (priority 2000, dated 2005).

Experiment [1] concerns buccal epidermoid carcinoma KB-3-1. The experiment can be described thus: In vitro cytotoxicity, Microculture Tetrazolium Assay. Type of experiment: cell-based, human. The note with it: exposure for four doubling periods (48 or 96 hours). As to the method:
(§1) The compounds of the invention were tested on various human and murine cell lines: • murine leukaemia L1210, • epidermoid carcinoma A-431, • non-small-cell lung carcinoma A549, • small-cell lung carcinoma H69, • colon carcinoma HT29, • buccal epidermoid carcinoma KB-3-1.
(§2) The cells are cultured in RPMI 1640 complete culture medium comprising 10% foetal calf serum, 2 mM glutamine, 50 units/ml of penicillin, 50 μg/ml of streptomycin and 10 mM Hepes, pH 7.4. The cells are distributed on microplates and are exposed to the cytotoxic compounds for four doubling periods, that is to say 48 hours or 96 hours. The number of viable cells is then quantified by a colorimetric assay, the Microculture Tetrazolium Assay (J. Carmichael et al., Cancer Res.; 47, 936-942, (1987)). The results are expressed as IC50, the cytotoxic concentration that inhibits the proliferation of the treated cells by 50%.

Experiment [2] concerns non-small-cell lung carcinoma A549. The description is as above. Type of experiment: cell-based, human. Particulars: exposure for four doubling periods (48 or 96 hours). The method, then: as §1, §2
The subject of experiment [3] is colon carcinoma HT29. The experiment is described as above. Type of experiment: cell-based, human. Particulars: exposure for four doubling periods (48 or 96 hours). The method, then:
as §1, §2

Experiment [4] deals with epidermoid carcinoma A-431. The description is as above. The note with it: exposure for four doubling periods (48 or 96 hours). The format is cell-based, human. The method, then: as §1, §2
The subject of experiment [5] is small-cell lung carcinoma H69. Described as above. The format is cell-based, human. The note with it: exposure for four doubling periods (48 or 96 hours). The method, then:
as §1, §2

The subject of experiment [6] is Lewis lung carcinoma (LLC). The experiment can be described thus: Anti-tumour activity on Lewis lung carcinoma. Particulars: D 4, 8, 12; for T/C %: increase in survival time; for Survivors D90: surviving animals on day 90, 7 animals per group. The format is in vivo, B6D2F1 mice. From the text: Lewis lung carcinoma (LLC) is a solid tumour that appeared spontaneously in the lungs of a C57B1/6 mouse and is maintained by successive transplants of fragments by the s.c. route. The LLC was obtained from the Division of Cancer Treatment, Tumor Repository, National Cancer Institute, Frederick, Md., USA. The mice, which are 4 to 6 weeks old, were obtained from Iffa Credo (Lyon, France), and weighed from 20 to 22 g at the beginning of the experiment.
On the first day of the experiment (D0), the tumours are removed and cut into fragments of approximately 30 mg which are immediately grafted by the s.c. route into the B6D2F1 mice. The mice into which the fragments have been implanted are then randomly divided into the treated groups and the control group (7 animals per group).
The parameter used for evaluating the anti-tumour activity is the increase in survival time.
In addition, the number of surviving animals in each group is counted at the end of the experiment on day 90.
The products were administered in accordance with the scheme shown below. The results are expressed as % T/C, calculated in the same manner as in the preceding test: […]

Experiment [7] deals with P388 (murine leukaemia). Nature of the experiment: Anti-tumour activity on P388 leukaemia. Type of experiment: in vivo, female BDF1 mice. Particulars: 6.25 mg/kg, intravenous route on day 1; tumour cells inoculated i.p. As to the method: Line P388 (murine leukaemia) was supplied by the National Cancer Institute (Frederick, USA). The tumour cells (10^6 cells) were inoculated on day 0 into the peritoneal cavity of female BDF1 mice (Iffa-Credo, France) weighing from 18 to 20 g (groups of 6 animals).
The products were administered by the intravenous route on day 1.
The anti-tumour activity is expressed as % T/C: [formula] For information only, the compound of Example 6 is active against P388 leukaemia and induces a T/C of 203% at 6.25 mg/kg. *Anti-tumour Activity of the Compounds on Lewis Lung Carcinoma: […]

The test system of experiment [8] is L1210 cells. Nature of the experiment: Action on the cell cycle (propidium iodide). Type of experiment: cell-based, murine. Particulars: 100 nM, after 21 hours; control: 20%. The method, then: L1210 cells are incubated for 21 hours at 37° C. in the presence of various concentrations of test compounds. The cells are then fixed using 70% ethanol (v/v), washed twice in PBS and incubated for 30 minutes at 20° C. in PBS that contains 100 μg/ml of RNAse and 50 μg/ml of propidium iodide. The results are expressed as a percentage of the cells that have accumulated in the G2+M phase after 21 hours compared with the control (control: 20%). At a concentration of 100 nM, the compound of Example 6 induces an 86% accumulation of the cells in the G2+M phase after 21 hours.

The subject of experiment [9] is murine leukaemia L1210. The experiment can be described thus: In vitro cytotoxicity, Microculture Tetrazolium Assay. The format is cell-based. Particulars: exposure for four doubling periods (48 or 96 hours). The method, then:
as §1, §2

In general, IC50 refers to the concentration that inhibits the measured activity by half. A high value points to weaker potency. Usually T/C stands for the result in the treated group divided by that in the control group, in per cent. As for “(5S,5aS,8aS,9R)-9-(4-Hydroxy-3,5-dimethoxyphenyl)-8-oxo-5,5a,6,8,8a,9-hexahydro-furo[3′,4′:6,7]naphtho[2,3-d][1,3]dioxol-5-yl-2-(dimethylamino)ethylcarbamate [Example 6]”, the half-inhibitory concentration (IC50) was found to be 85 nM in [1]; 46 nM in experiment [2]; 121 nM in experiment [3]; 71 nM in experiment [4]; 96 nM in experiment [5]; 38 nM in [9]. Besides, in experiment [6] (3.12 mg/kg i.v.), the T/C % turned out to be 168%. Further, the “Survivors D90” value in experiment [6] (3.12 mg/kg i.v.) is 1/7. This compound also yielded a T/C in experiment [7] of 203%. Further, the “accumulation of the cells in the G2+M phase” value in experiment [8] was 86%.

As for `COc1cc([C@@H]2c3cc4c(cc3[C@@H](OC(=O)N(C)CCN(C)C)[C@@H]3COC(=O)[C@@H]23)OCO4)cc(OC)c1O` [Example 1, (5S,5aS,8aS,9R)-9-(4-Hydroxy-3,5-dimethoxyphenyl)-8-oxo-5,5a,6,8,8a,9-hexahydro-furo[3′,4′:6,7]naphtho[2,3-d][1,3] dioxol-5-yl 2-(dimethylamino)ethyl(methyl)carbamate], in experiment [6] (25 mg/kg i.v.), the T/C % was 165% and the “Survivors D90” value is listed as 1/7.
